From US20080182877A1, “Rimonabant forms and methods of making the same” (priority 2007, published 2008)
Counter-ions that a name gives are not always drawn. Values belong to the molecule of their own block, whether it stands above or below them.

Tests used:
Assay type in all cases: physicochemical
[1] = Storage stability of solid forms at room temperature
Method: In detail, rimonabant base may be isolated in a new solid state crystalline hydrate form, designated as the Form III. Form III is characterized by the XRPD spectrum having characteristic peaks at angles of around 9.29°, 10.49°, 13.52°, 15.25°, 17.78° using a 2-theta scale. […] The hydrated Form III is stable during storage at room temperature.
In general, a mixture of the hydrated Form III and the methanol solvate Form IV may be obtained after a crystallization of rimonabant base from a methanol solvent containing water. Mixtures of the hydrated Form III and the methanol solvate Form IV may also be obtained by crystallizing rimonabant base and rimonabant hydrochloride from methanol/water mixtures. A longer crystallization time, a slower cooling, and a lower solute concentration each generally promote the crystallization of Form III over Form IV. […] The methanolate Form IV is thus a thermodynamically unstable form. A mixture of Forms III and Form IV is also useful for making particulated amorphous rimonabant base.
Rimonabant base may also be isolated in a propanol solvate form, designated as the Form VI. Form VI is characterized by the following XRPD having characteristic peaks at angles of around 6.73°, 8.36°, 9.92°, 11.98°, 13.45°, 14.34°, 18.14°, 21.43°, 21.88°, 24.13°, 31.03° and 32.28° using a 2-theta scale. […] Instead, the known Form I of the crystalline anhydrous rimonabant is provided after a crystallization from 2-propanol. Form VI may be obtained by crystallizing rimonabant base from a 1-propanol solvent. For example, the crystallization may be induced by a slow evaporation of the 1-propanol solvent.

Solubility in water = settings: compared with the known Form I
Excerpt: In general, only the hydrated Form III rimonabant is obtainable by a process employing water as the solvent. The other known solvent-free forms I and II are made by a process employing solely an organic solvent. The Form III is thus an advantageous form from technological and ecological reasons.

[2] = Thermal desolvation of hydrates/solvates by heating/drying; settings: among Form III, IV, V and VI; temperature higher than 80° C. preferable
Excerpt: The conversion of any of the above hydrates and/or solvates, as well as mixtures thereof, to the particulated amorphous rimonabant base may be performed by a heating (drying) thereof at an enhanced temperature (e.g., higher than room temperature), preferably at diminished pressure (e.g., lower than atmospheric pressure). The transformation into the particulated amorphous rimonabant base may be accomplished by the fact that the crystalline lattice of any of the solvates and/or hydrates is thermally unstable and may collapse at an enhanced temperature without any further recrystallization into the most thermodynamically stable form of rimonabant, the Form I. Accordingly the Form I cannot apparently be converted into the amorphous form by such a simple transformation.
The fastest loss of the bound solvent in combination with amorphization occurs for the ethanol solvate, where the heating/drying of the product takes place at 60° C. or more, generally 60-80° C. Accordingly, the ethanol solvate can be used to obtain powderized amorphous rimonabant base. For other hydrates/solvates, e.g., for the methanolate Form IV, propanolate Form VI, hydrate Form III or hydrate Form V, a temperature higher than 80° C. is preferable to facilitate the conversion into the particulate amorphous rimonabant base. […]

[3] = Stability of the salt towards solvents (crystallization or stirring of a suspension)
Excerpt: A known rimonabant solvate form, a rimonabant ethanol solvate, is disclosed in U.S. Pat. No. 5,624,941 (Example 212). According to U.S. Pat. No. 5,624,941, this ethanol solvate may be made by crystallizing rimonabant from ethanol. It has now been discovered that the same rimonabant ethanol solvate may be obtained by a novel solvent mediated transformation, such as by suspending and stirring the anhydrous rimonabant base in a liquid comprising ethanol. For example, the liquid may be an ethanol/water mixture, e.g. having a 3:1 (V/V) ratio. Also the crystallization of rimonabant hydrochloride from an ethanol/water mixture may provide for the known ethanolate of rimonabant base, which is another process not disclosed in the prior art and indicates the instability of rimonabant hydrochloride towards solvents comprising ethanol. As described more fully below, this ethanol solvate can be used to form amorphous rimonabant.
In this regard, the rimonabant salt can precipitate as the base, either by addition of a neutralizing base or spontaneously, and/or can precipitate as the salt and convert to the base by a solvent mediated transformation. Accordingly, stirring a suspension of rimonabant hydrochloride in a solvent comprising water (e.g. water/methanol=30:1 V/V) at ambient temperature provides for solvent-mediated polymorphic transformation yielding the Form III of rimonabant base. […]

stability during storage [1]: stable
SMILES: Cc1c(C(=O)NN2CCCCC2)nn(-c2ccc(Cl)cc2Cl)c1-c1ccc(Cl)cc1 [Form III, Rimonabant]
solubility in water (Solubility in water): same solubility in water as the known Form I

conversion during storage ([1]; in the presence of air humidity): may be converted into Form III
SMILES: Cc1c(C(=O)NN2CCCCC2)nn(-c2ccc(Cl)cc2Cl)c1-c1ccc(Cl)cc1 [Form IV, Rimonabant]

stability during storage [1]: sufficiently stable
relative stability to heating/drying (desolvation) [2]: most stable
SMILES: Cc1c(C(=O)NN2CCCCC2)nn(-c2ccc(Cl)cc2Cl)c1-c1ccc(Cl)cc1 [Form VI, Rimonabant]

stability towards solvents comprising ethanol ([3]; crystallization from an ethanol/water mixture gives the ethanolate of the base): instability
stability towards solvents comprising water ([3]; e.g. water/methanol 30:1 V/V, ambient temperature, yields Form III of the base): not stable
SMILES: Cc1c(C(=O)NN2CCCCC2)nn(-c2ccc(Cl)cc2Cl)c1-c1ccc(Cl)cc1 [rimonabant hydrochloride]
